PMC8805583, “Discovery of Herbacetin as a Novel SGK1 Inhibitor to Alleviate Myocardial Hypertrophy” (Advanced Science, 2021)

Experiments:
rat cardiomyocytes = assay: ROS (DCFH-DA) and Ca2+ (Fluo-4 AM) detection in PE-stimulated cardiomyocytes; format: cell-based
Excerpt: Elevated cytoplasmic calcium was also observed in PE‐stimulated rat cardiomyocytes after Fluo‐4 AM staining. […] Since the channel subunit Orai1 and stromal interaction molecule 1 (STIM1) are known to participate in the orchestration of Ca^2+ entry into cells and are regulated by multiple kinases including SGK1,^[ [33] ^] we examined if HBT regulates their activities. […] Orai1 may be regulated by Nedd4‐like E3 ubiquitin protein ligase (Nedd4l) mediated degradation or the transcription factor nuclear factor‐κB (NF‐κB) dependent transcription, so we detected the effects of HBT on SGK1 downstream proteins. […] Therefore, HBT may also attenuate cardiomyocyte hypertrophy by reducing cytoplasmic calcium level.
Fluo-4 AM were obtained from Beyotime. SGK1 antibody and GAPDH antibody were obtained from Beyotime. FoxO1, Phospho-FoxO1 (Ser256), p44/42 MAPK (Erk1/2), […]
p65, Phospho-GSK-3β (Ser9), GSK-3β, Phospho-NDRG1 (Thr346), NDRG1, Phospho-NEDD4L (Ser342), NEDD4L, HO-1, Nrf2 and MnSOD antibody were obtained from Cell Signaling. Phospho-SGK1(S422) antibody was obtained from Affinity. Orai1, STIM1, ACTA1 and FLAG antibody were obtained from Proteintech. BNP antibody was obtained from Abcam. ANP antibody was obtained from Santa Cruz Biotechnology. Myosin antibody was obtained from Sigma-Aldrich. Reference compounds were obtained from Shanghai Yuanye Biotechnology. Lipofectamine 2000 transfection reagent was purchased from Invitrogen. Protein A/G agarose was purchased from Beaver Biotechnology.
Phenylephrine (PE) was obtained from Aladdin. Deionized water was prepared with an Elga PURELAB flex system (ELGA LabWater, UK). […]
Micro® Confocal High-Content Imaging System (Molecular Devices). […]
BSA for 1 h, the cells were incubated overnight at 4 °C with rabbit anti-FoxO1 antibody and then with goat anti-rabbit AlexaFluor 488–conjugated antibody for 1 h at room temperature.
Nuclei were stained with Hoechst. Images were acquired using a high-resolution laser confocal microscope (Leica) using an oil immersion A-Plan ×63 objective.
3. ROS and Ca2+ Detection
ROS and Ca2+ levels were detected using DCFH-DA and Fluo-4 AM reagent (Beyotime) respectively according to the manufacturer’s instructions. After incubated for 48 hours, the supernatant was removed and cells were washed with PBS for three times. 100 μL DCFH-DA […]
or Fluo-4 AM working solution was added to each well and incubated at 37℃ for 20 minutes.
Then the cells were washed with PBS for 3 times and images were acquired using an ImageXpress Micro® Confocal High-Content Imaging System (Molecular Devices). The mean fluorescence intensity of cells positive for DCFH-DA or Fluo-4 AM staining was […]
4. Histology and Immunohistochemistry (IHC) […]
(Sigma) according to the manufacturer’s protocol. […]

SGK1 = target: T1, SGK1 (Homo sapiens, UniProt O00141); assay: Cellular thermal shift assay in cell lysates; format: binding
T1 sequence (O00141 1-431): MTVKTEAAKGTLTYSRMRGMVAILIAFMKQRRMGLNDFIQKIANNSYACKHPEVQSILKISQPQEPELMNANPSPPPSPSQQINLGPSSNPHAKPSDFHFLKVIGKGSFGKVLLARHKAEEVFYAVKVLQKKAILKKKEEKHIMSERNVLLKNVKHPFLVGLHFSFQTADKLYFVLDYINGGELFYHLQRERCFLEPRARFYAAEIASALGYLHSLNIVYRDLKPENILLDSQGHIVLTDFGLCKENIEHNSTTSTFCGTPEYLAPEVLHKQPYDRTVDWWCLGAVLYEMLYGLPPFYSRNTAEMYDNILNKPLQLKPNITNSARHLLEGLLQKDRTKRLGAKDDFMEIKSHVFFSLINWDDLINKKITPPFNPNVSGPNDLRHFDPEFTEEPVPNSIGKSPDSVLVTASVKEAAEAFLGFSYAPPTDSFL
Excerpt: To identify active compounds with SGK1 inhibitory activity from Ext.R, a novel mass‐spectrometry based kinase inhibitory assay was developed. A polypeptide sequence ([…], m/z: 618.6) derived from glycogen Synthase Kinase‐3(GSK3), a known substrate of SGK1, was optimized and synthesized. We subsequently used liquid chromatography coupled with mass spectrometry (LC/MS) to detect and quantify its phosphorylation level ([…](p)FAE, m/z:658.7) (Figure 3A).^[ [26] ^] Basal level SGK1 was supplemented to each well, and the peak area of phosphorylation was measured in the presence or absence of testing compounds. […] After investigating the major chemical constituents in Ext.R (Table S3, Supporting Information), a set of compounds in Ext.R were subsequently screened for their impacts on SGK1 activity. […] The direct interaction between HBT and SGK1 was further verified by temperature‐ and dose‐dependent cellular thermal shift assays (Figure 3E,F). We further performed a direct binding assay of HBT to SGK1 by KINOMEscan assay (Eurofins Discovery).
Figure 3 Mass spectrometry‐based kinase inhibitory assay for screening SGK1 inhibitor. A) Illustration of the mass spectrometry‐based assay for screening SGK1 inhibitors. […] G) Direct binding assay of HBT to SGK1 by KINOMEscan assay (Eurofins Discovery).

[1] = tested on: primary rat cardiomyocytes; assay: Phenylephrine (PE)-induced hypertrophy in primary cardiomyocytes (phalloidin cell area, RT-PCR, western blot); format: cell-based
Description: The magnitude of cardiac hypertrophy was then evaluated by directly measuring the cell area after Alexa Fluor 488 phalloidin staining.
Primary cultures of cardiac myocytes were prepared from neonatal rat hearts using the Neonatal Heart Dissociation Kit (MACS, Germany) according to the manufacturer's protocol. Cardiomyocyte cultures were plated in gelatin‐coated plates in a plating medium containing 10% serum. After 24 h of plating, the medium was then replaced with a serum‐free maintenance medium and incubated for another 24 h before being used for further study.
For phenylephrine (PE)‐mediated cardiac hypertrophy, cardiomyocytes cultured in 6‐well plates were stimulated with PE (50 µmol) for 48 h in serum‐free medium with or without Ext.R or HBT (50 µmol) treatment. Cardiomyocytes were lysed in cell lysis buffer to isolate protein or total RNA for western blotting or PCR analysis.
Phalloidin Staining and Immunofluorescence
To determine phenylephrine-induced hypertrophy, Alexa Fluor 488 Phalloidin (Cell Signaling) was used to fluorescently stain the cytoskeleton by the binding of phalloidin to F­actin. In brief, cells were fixed for 15 min using 4% paraformaldehyde then rinsed three times in PBS.
Following incubation of Alexa Fluor 488 Phalloidin and Hoechst for 15 min at room temperature, cells were rinsed once with PBS. Images were carried out using an ImageXpress Micro® Confocal High-Content Imaging System (Molecular Devices).

Compound: O=c1c(O)c(-c2ccc(O)cc2)oc2c(O)c(O)cc(O)c12 [HBT, herbacetin]
- cytoplasmic calcium accumulation, Fluo-4 AM staining (rat cardiomyocytes; PE stimulation, cotreatment): effectively blocked
- free radicals (ROS), DCFH-DA staining (rat cardiomyocytes; PE stimulation, cotreatment): greatly inhibited
- MnSOD expression (rat cardiomyocytes; PE, western blot): restored
- phosphorylation level of Erk (rat cardiomyocytes; PE, western blot): downregulated
- thermal stability of SGK1, concentration-dependent cellular thermal shift assay (SGK1; 65 °C): increases the thermal stability of SGK1
- thermal stability of SGK1, temperature-dependent cellular thermal shift assay (SGK1; HBT 100 µmol): increases the thermal stability of SGK1
- PE-induced hypertrophy, cardiomyocyte cell area ([1]; 50 µmol PE 48 h, Ext.R 50 µg mL−1 or HBT 50 µmol): attenuate PE‐induced hypertrophy
- transcriptional level of ANP and BNP ([1]; 50 µmol PE, Ext.R or HBT): inhibited
- phosphorylation of SGK1 and FoxO1 ([1]; PE stimulation, western blot): significantly reduce
- protein expression of ACTA1, BNP and Myosin ([1]; PE stimulation, western blot): significantly reduced
- phosphorylation level of NF-κB p65 (Ser536) ([1]; PE-treated cardiomyocytes): did not affect
- phosphorylation of Nedd4l ([1]; induced by PE): reduce the phosphorylation
